Test results from PMC10733463, “Berberine-microbiota interplay: orchestrating gut health through modulation of the gut microbiota and metabolic transformation into bioactive metabolites” (Frontiers in Pharmacology, 2023).

Legend:
[1] = tested on: duodenum; test: Intestinal morphology (villus length, crypt depth) in the duodenum; assay type: in vivo, Ross 308 broiler chickens; settings: 21 days
Excerpt: The study was undertaken following the guidelines of the ethics committee of the Faculty of Veterinary Medicine and Bioscience Engineering, Ghent University, in accordance with the EU Directive 2010/63/EU. […] They were allotted into 4 groups, with three replicate pens per group each housing 8 chickens. The animals were not vaccinated. Water and commercial starter feed (day 1-12, FARM 1 Mash, Country's Best, […], Belgium) or grower (day 13-21, FARM 2 mash, Country's Best, […], Belgium) were provided ad libitum. […] At day 21, 4 birds per pen were weighted then euthanized by sodium pentobarbital injection for sampling. […] Additionally, ileal and caecal content samples were collected and stored at -20°C for berberine and berberine-derived metabolite quantification. […] 24 h formalin-fixed duodenal intestinal tissue segments were embedded in paraffin wax and sectioned at 5 μm, followed by haematoxylin and eosin staining. Villus length and crypt depth were assessed using a PC-based image analysis system (Leica Application Suite V4, LAS V4.; Leica, Diegem Belgium).

[2] = tested on: Blautia spp., A. butyraticus, E. limosum; test: Growth of bacteria in presence of increasing concentrations of berberine; assay type: cell-based; settings: 10 μg/mL berberine, M2GSC, anaerobic
Excerpt: Samples were collected and processed as described before.
Supplementary Figure S1 – Growth of bacteria in presence of increasing concentrations of berberine in M2GSC medium (μg/mL) under anaerobic conditions. Strains were further tested for their ability to metabolize berberine (Figure 14). Strains were selected according to OTUs which relative abundance was positively correlated to berberrubine or thalifendine levels, including Blautia spp. and A. butyraticus. E. limosum was included as it was expected to demethylate berberine due to previous literature (Possemiers et al., 2008; Rich et al., 2022). Overnight cultures were 1:1000 diluted in M2GSC medium supplemented with 0, 1, 10 or 100 µg/mL berberine and grown for 24 hours under anaerobic conditions. Absorbance data at 600 nm are expressed as the mean ± standard deviation (n = 3). *: p < 0.05; ***: p < 0.001.

[3] = tested on: jejunal microbiota; test: 16S rRNA gene sequencing, microbiota composition in the jejunum; assay type: in vivo, Ross 308 broiler chickens
[4] = Bodyweight of broilers fed berberine-supplemented diet; assay type: in vivo, Ross 308 broiler chickens; settings: 21 days post-hatch, n = 12
Excerpt: The study was undertaken following the guidelines of the ethics committee of the Faculty of Veterinary Medicine and Bioscience Engineering, Ghent University, in accordance with the EU Directive 2010/63/EU. […] They were allotted into 4 groups, with three replicate pens per group each housing 8 chickens. The animals were not vaccinated. Water and commercial starter feed (day 1-12, FARM 1 Mash, Country's Best, […], Belgium) or grower (day 13-21, FARM 2 mash, Country's Best, […], Belgium) were provided ad libitum. […] At day 21, 4 birds per pen were weighted then euthanized by sodium pentobarbital injection for sampling. […] Additionally, ileal and caecal content samples were collected and stored at -20°C for berberine and berberine-derived metabolite quantification.

[5] = 0.1 g berberine/kg feed vs normal diet, 21 days, LinDA-normalized abundance
[6] = 0.1 g berberine/kg feed, 21 days
[7] = 0.5 g berberine/kg feed vs normal diet, 21 days, LinDA-normalized abundance
[8] = 0.5 g berberine/kg feed, 21 days
[9] = 1 g berberine/kg feed vs normal diet, 21 days, LinDA-normalized abundance

COc1ccc2cc3[n+](cc2c1OC)CCc1cc2c(cc1-3)OCO2 [Berberine, Berberine chloride]
Crypt depth ([1]; 0.1 g berberine/kg feed): 114 ± 21 µm | Villus length ([1]; 0.1 g berberine/kg feed): 1,678 ± 101 µm | Villus to crypt ratio ([1]; 0.1 g berberine/kg feed): 15.30 ± 2.50 | Crypt depth ([1]; 0.5 g berberine/kg feed): 104 ± 15 µm | Villus length ([1]; 0.5 g berberine/kg feed): 1,815 ± 148 µm | Villus to crypt ratio ([1]; 0.5 g berberine/kg feed): 17.98 ± 2.53 | Crypt depth ([1]; 1 g berberine/kg feed): 103 ± 17 µm | Villus length ([1]; 1 g berberine/kg feed): 1,820 ± 150 µm | Villus to crypt ratio ([1]; 1 g berberine/kg feed): 18.31 ± 3.21 | Growth of the tested bacteria [2]: not significantly affected | L2 FC Butyricicoccus, 0.1 vs 0 [3, 5]: -2.02 | L2 FC Curtobacterium, 0.1 vs 0 [3, 5]: -2.73 | L2 FC Gordonibacter, 0.1 vs 0 [3, 5]: -2.71 | Mean relative abundance (%) Butyricicoccus [3, 6]: 0.22% | Mean relative abundance (%) Curtobacterium [3, 6]: 0.01% | Mean relative abundance (%) Gordonibacter [3, 6]: 0.01% | Mean relative abundance of Bacillaceae [3, 6]: 0.03% | Mean relative abundance of Burkholderiaceae [3, 6]: 6.47% | Mean relative abundance of Peptostreptococcaceae [3, 6]: 6.37% | Mean relative abundance of Pseudomonadaceae [3, 6]: 1.71% | Mean relative abundance of Ruminococcaceae [3, 6]: 3.73% | Mean relative abundance of uncultured bacterium family (Tenericutes, Mollicutes RF39) [3, 6]: 0.01% | L2FC of LinDA-normalized abundance of Bacillaceae ([3]; 0.1 vs 0 g berberine/kg feed): 3.45 | L2FC of LinDA-normalized abundance of Burkholderiaceae ([3]; 0.1 vs 0 g berberine/kg feed): 3.82 | L2FC of LinDA-normalized abundance of Peptostreptococcaceae ([3]; 0.1 vs 0 g berberine/kg feed): 3.90 | L2FC of LinDA-normalized abundance of Pseudomonadaceae ([3]; 0.1 vs 0 g berberine/kg feed): 3.67 | L2FC of LinDA-normalized abundance of Ruminococcaceae ([3]; 0.1 vs 0 g berberine/kg feed): 2.19 | L2FC of LinDA-normalized abundance of uncultured bacterium family (Tenericutes, Mollicutes RF39) ([3]; 0.1 vs 0 g berberine/kg feed): 2.35 | L2 FC Butyricicoccus, 0.5 vs 0 [3, 7]: -0.78 | L2 FC Curtobacterium, 0.5 vs 0 [3, 7]: -1.13 | L2 FC Gordonibacter, 0.5 vs 0 [3, 7]: -2.33 | Mean relative abundance (%) Butyricicoccus [3, 8]: 0.34% | Mean relative abundance (%) Curtobacterium [3, 8]: 0.03% | Mean relative abundance (%) Gordonibacter [3, 8]: 0.00% | Mean relative abundance of Bacillaceae [3, 8]: 0.04% | Mean relative abundance of Burkholderiaceae [3, 8]: 5.60% | Mean relative abundance of Peptostreptococcaceae [3, 8]: 0.52% | Mean relative abundance of Pseudomonadaceae [3, 8]: 0.35% | Mean relative abundance of Ruminococcaceae [3, 8]: 4.52% | Mean relative abundance of uncultured bacterium family (Tenericutes, Mollicutes RF39) [3, 8]: 0.02% | L2FC of LinDA-normalized abundance of Bacillaceae ([3]; 0.5 vs 0 g berberine/kg feed): 1.43 | L2FC of LinDA-normalized abundance of Burkholderiaceae ([3]; 0.5 vs 0 g berberine/kg feed): 0.67 | L2FC of LinDA-normalized abundance of Peptostreptococcaceae ([3]; 0.5 vs 0 g berberine/kg feed): -1.12 | L2FC of LinDA-normalized abundance of Pseudomonadaceae ([3]; 0.5 vs 0 g berberine/kg feed): 0.14 | L2FC of LinDA-normalized abundance of Ruminococcaceae ([3]; 0.5 vs 0 g berberine/kg feed): -0.14 | L2FC of LinDA-normalized abundance of uncultured bacterium family (Tenericutes, Mollicutes RF39) ([3]; 0.5 vs 0 g berberine/kg feed): 0.60 | L2 FC Butyricicoccus, 1 vs 0 [3, 9]: -0.38 | L2 FC Curtobacterium, 1 vs 0 [3, 9]: -2.09 | L2 FC Gordonibacter, 1 vs 0 [3, 9]: -1.79 | Mean relative abundance (%) Butyricicoccus ([3]; 1 g berberine/kg feed, 21 days): 0.84% | Mean relative abundance (%) Curtobacterium ([3]; 1 g berberine/kg feed, 21 days): 0.06% | Mean relative abundance (%) Gordonibacter ([3]; 1 g berberine/kg feed, 21 days): 0.02% | Mean relative abundance of Bacillaceae ([3]; 1 g berberine/kg feed, 21 days): 0.04% | Mean relative abundance of Burkholderiaceae ([3]; 1 g berberine/kg feed, 21 days): 3.55% | Mean relative abundance of Peptostreptococcaceae ([3]; 1 g berberine/kg feed, 21 days): 0.26% | Mean relative abundance of Pseudomonadaceae ([3]; 1 g berberine/kg feed, 21 days): 0.35% | Mean relative abundance of Ruminococcaceae ([3]; 1 g berberine/kg feed, 21 days): 10.54% | Mean relative abundance of uncultured bacterium family (Tenericutes, Mollicutes RF39) ([3]; 1 g berberine/kg feed, 21 days): 0.00% | L2FC of LinDA-normalized abundance of Bacillaceae ([3]; 1 vs 0 g berberine/kg feed): 0.80 | L2FC of LinDA-normalized abundance of Burkholderiaceae ([3]; 1 vs 0 g berberine/kg feed): 1.37 | L2FC of LinDA-normalized abundance of Peptostreptococcaceae ([3]; 1 vs 0 g berberine/kg feed): -3.21 | L2FC of LinDA-normalized abundance of Pseudomonadaceae ([3]; 1 vs 0 g berberine/kg feed): 1.01 | L2FC of LinDA-normalized abundance of Ruminococcaceae ([3]; 1 vs 0 g berberine/kg feed): 1.51 | L2FC of LinDA-normalized abundance of uncultured bacterium family (Tenericutes, Mollicutes RF39) ([3]; 1 vs 0 g berberine/kg feed): 0.00 | Abundance of phylum Actinobacteria ([3]; high dose (1 g/kg feed), p = 0.021): reduction | Abundance of phylum Actinobacteria ([3]; low dose (0.1 g/kg feed), p < 0.001): reduction | Bodyweight ([4]; 0.1 g berberine/kg feed): 655 ± 76 g | Bodyweight ([4]; 0.5 g berberine/kg feed): 703 ± 115 g | Bodyweight ([4]; 1 g berberine/kg feed): 671 ± 55 g
